Values joined by “and” are separate entries in the source; they are usually repeats but may differ in a detail not shown here. Equal entries are not always repeated. Where two headings read alike, the source gives them in different places.
What was measured:
[1] = Clinical Opiate Withdrawal Scale (COWS) after abrupt discontinuation, MAD study; conditions: abrupt discontinuation after 10 consecutive days
[2] = molecular target: T1, serotonin transporter (SERT or 5-HT) (Rattus norvegicus, UniProt P31652); assay: biochemical
T1 sequence (P31652 whole entry): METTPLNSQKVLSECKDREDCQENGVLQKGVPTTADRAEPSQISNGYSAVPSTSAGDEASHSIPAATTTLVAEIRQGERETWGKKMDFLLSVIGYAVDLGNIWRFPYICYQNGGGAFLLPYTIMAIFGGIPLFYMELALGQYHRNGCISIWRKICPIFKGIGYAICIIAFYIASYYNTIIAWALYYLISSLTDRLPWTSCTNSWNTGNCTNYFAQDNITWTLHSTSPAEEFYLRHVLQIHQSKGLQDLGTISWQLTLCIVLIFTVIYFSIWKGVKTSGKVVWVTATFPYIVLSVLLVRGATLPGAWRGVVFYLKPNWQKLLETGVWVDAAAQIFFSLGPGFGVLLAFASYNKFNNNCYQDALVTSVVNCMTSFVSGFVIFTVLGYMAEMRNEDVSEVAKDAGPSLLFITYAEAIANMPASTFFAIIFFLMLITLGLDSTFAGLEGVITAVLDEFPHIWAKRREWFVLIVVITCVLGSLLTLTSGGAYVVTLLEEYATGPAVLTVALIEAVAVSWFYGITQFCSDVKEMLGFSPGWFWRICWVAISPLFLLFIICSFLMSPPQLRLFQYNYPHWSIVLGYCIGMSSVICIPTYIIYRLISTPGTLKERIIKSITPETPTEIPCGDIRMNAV

[3] = Bond-Lader Visual Analog Scale (cognitive and psychotomimetic effects), SAD and MAD studies
[4] = Locomotor activity assessment (distance traveled, rearing); assay type: in vivo, rat; conditions: for Distance traveled min 1-5, Mean / Rearing min 1-5, Mean / Total Distance Traveled, Mean / Total Rearing, Mean: 24 hours prior to testing; for Total Rearing, Mean: 60 minute test
[5] = molecular target: T1, serotonin transporter (SERT or 5-HT)
[6] = system: testosterone; assay: Serum testosterone levels in male MAD 25 mg subjects; assay type: in vivo, human; conditions: for Testosterone Levels, individual male subjects: hydrochloride
[7] = Single ascending dose (SAD) study in healthy volunteers: pharmacokinetics of d-methadone; conditions: both, human, in vivo
[8] = molecular target: T2, norepinephrine transporter (NET) (Rattus norvegicus, UniProt Q63380); assay: Norepinephrine uptake assay; assay type: biochemical
T2 construct: tissue Eurofins Cerep; host or cells: rat hypothalamus synaptosomes (own knowledge of the vendor's assay)
T2 sequence (Q63380 1-617): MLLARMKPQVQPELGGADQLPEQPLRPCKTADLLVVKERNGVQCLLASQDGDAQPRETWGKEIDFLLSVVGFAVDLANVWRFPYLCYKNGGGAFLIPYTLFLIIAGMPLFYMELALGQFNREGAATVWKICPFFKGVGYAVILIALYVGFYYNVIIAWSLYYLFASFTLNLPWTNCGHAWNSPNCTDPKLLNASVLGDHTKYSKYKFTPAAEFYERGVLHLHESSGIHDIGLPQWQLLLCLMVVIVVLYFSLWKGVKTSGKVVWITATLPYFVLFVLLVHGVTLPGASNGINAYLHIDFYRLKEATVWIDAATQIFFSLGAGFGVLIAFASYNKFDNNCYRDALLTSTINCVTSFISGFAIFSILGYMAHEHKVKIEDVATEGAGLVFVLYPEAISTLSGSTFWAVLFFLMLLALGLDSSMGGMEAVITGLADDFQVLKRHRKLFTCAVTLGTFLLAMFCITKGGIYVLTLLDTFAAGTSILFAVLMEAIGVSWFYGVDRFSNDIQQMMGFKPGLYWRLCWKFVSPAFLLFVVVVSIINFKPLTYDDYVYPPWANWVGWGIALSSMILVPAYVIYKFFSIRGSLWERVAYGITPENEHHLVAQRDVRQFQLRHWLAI

[9] = in vivo
[10] = both, human, in vivo
[11] = Body weight gain in rats (chronic constrictive nerve injury model experiment); assay type: in vivo; conditions: rat
[12] = 2-3-5 hours after single dose 5 mg, SAD
[13] = rat, 24 h after dosing, one-way ANOVA

CCC(=O)C(C[C@H](C)N(C)C)(c1ccccc1)c1ccccc1 [d-methadone]
Withdrawal symptoms (COWS) [1]: did not cause symptoms of withdrawal
IC50 [2]: 0.12 µM
Bond-Lader VAS mean score: I am feeling drowsy (0: Alert, 100: Drowsy) [3, 12]: 19.1
Bond-Lader VAS mean score: I am feeling proficient (0: Incompetent, 100: Proficient) [3, 12]: 93.6
Bond-Lader VAS mean score: I am feeling quick witted (0: Mentally slow, 100: Quick witted) [3, 12]: 91.8
Bond-Lader Visual Analog Scale, domains of mental alertness and cognitive functions, vs placebo arm ([3]; SAD 5 mg single dose, 2-3-5 hours post dose): improved scores
Cognitive deficits or psychotomimetic effects (Bond-Lader Visual Analog Scale) ([3]; healthy subjects of SAD and MAD studies): did not cause clinically significant cognitive deficits or psychotomimetic effects
Distance traveled min 1-5, Mean ([4]; 10 mg/kg): 597.167
Rearing min 1-5, Mean ([4]; 10 mg/kg): 26.333
Total Distance Traveled, Mean ([4]; 10 mg/kg): 2605.500 cm/60 min
Total Rearing, Mean ([4]; 10 mg/kg): 119.167
Distance traveled min 1-5, Mean ([4]; 20 mg/kg): 556.833
Rearing min 1-5, Mean ([4]; 20 mg/kg): 28.667
Total Distance Traveled, Mean ([4]; 20 mg/kg): 2060.667 cm/60 min
Total Rearing, Mean ([4]; 20 mg/kg): 100.167
Distance traveled min 1-5, Mean ([4]; 40 mg/kg): 447.500
Rearing min 1-5, Mean ([4]; 40 mg/kg): 17.333
Total Distance Traveled, Mean ([4]; 40 mg/kg): 1773.000 cm/60 min
Total Rearing, Mean ([4]; 40 mg/kg): 75.000
Locomotor activity: total distance traveled (60 min) [4, 13]: no significant effect
Locomotor activity: total rearing frequency (60 min) [4, 13]: no significant effect
inhibition [5]: 91% and 92.7% and 89.3%
Testosterone serum levels ([6]; 25 mg once per day for ten days, three male subjects): increased
Testosterone Levels, individual male subjects ([6]; Day 6, 25 mg once a day for 10 days): 13.1 nmol/L
Testosterone Levels, individual male subjects ([6]; Day 12, 25 mg once a day for 10 days): 14.4 nmol/L and 10.1 nmol/L
Testosterone Levels, individual male subjects ([6]; Follow Up (Day 18 ± 1), 25 mg once a day for 10 days): 9.6 nmol/L and 13.6 nmol/L and 8.1 nmol/L
Testosterone Levels, individual male subjects ([6]; Screening (Day −1), baseline, normal range 7.6-31.4): 7.4 nmol/L and 9.2 nmol/L and 4.1 nmol/L
AUC(0-inf) ([7]; 5 mg): 1190 ng·h/mL
AUC(0-t) ([7]; 5 mg, AUC0-24, SAD 5 mg, mean): 675 ng·h/mL
AUC(0-t) ([7]; 5 mg, AUC0-last, SAD 5 mg, mean): 1250 ng·h/mL
Cmax ([7]; 5 mg, median, SAD 5 mg): 48.4 ng/mL
AUC(0-inf) ([7]; 20 mg): 6230 ng·h/mL
AUC(0-t) ([7]; 20 mg, AUC0-24, SAD 20 mg, mean): 2310 ng·h/mL
AUC(0-t) ([7]; 20 mg, AUC0-last, SAD 20 mg, mean): 4620 ng·h/mL
Cmax ([7]; 20 mg, SAD 20 mg, mean): 163 ng/mL
AUC(0-inf) ([7]; 60 mg): 14100 ng·h/mL
AUC(0-t) ([7]; 60 mg, AUC0-24, SAD 60 mg, mean): 5540 ng·h/mL
AUC(0-t) ([7]; 60 mg, AUC0-last, SAD 60 mg, mean): 13600 ng·h/mL
Cmax ([7]; 60 mg, SAD 60 mg, mean): 404 ng/mL
AUC(0-inf) ([7]; 100 mg): 31100 ng·h/mL
AUC(0-t) ([7]; 100 mg, AUC0-24, SAD 100 mg, mean): 10700 ng·h/mL
AUC(0-t) ([7]; 100 mg, AUC0-last, SAD 100 mg, mean): 29700 ng·h/mL
Cmax ([7]; 100 mg, SAD 100 mg, mean): 739 ng/mL
AUC(0-inf) ([7]; 150 mg): 32600 ng·h/mL
AUC(0-t) ([7]; 150 mg, AUC0-24, SAD 150 mg, mean): 14600 ng·h/mL
AUC(0-t) ([7]; 150 mg, AUC0-last, SAD 150 mg, mean): 37200 ng·h/mL
Cmax ([7]; 150 mg, SAD 150 mg, mean): 1060 ng/mL
AUC(0-t) ([7]; 200 mg, AUC0-24, SAD 200 mg, n=1): 20700 ng·h/mL
AUC(0-t) ([7]; 200 mg, AUC0-last, SAD 200 mg, n=1): 67700 ng·h/mL
Cmax ([7]; 200 mg, SAD 200 mg, n=1): 1530 ng/mL
IC50 [8]: 8.2 µM
norepinephrine uptake, % inhibition ([8]; 1.0E−05 M): 61.6%
Inhibition of norepinephrine uptake by NET ([8]; […]): significant inhibition
Tolerability [9]: well tolerated
Number of doses to steady state [10]: 6-7 doses
AUCtau ([10]; 25 mg): 4392 ng·h/mL
AUCtau ([10]; 50 mg): 10,147 h*ng/mL
AUCtau ([10]; 75 mg): 10,537 h*ng/mL
mean weight gain baseline to day 15 ([11]; 10 mg/kg s.c. once daily 15 days): 41 grams
mean weight gain baseline to day 15 ([11]; 20 mg/kg s.c. once daily 15 days): 36 grams
Body weight gain vs vehicle-treated animals ([11]; 40 mg/kg S.C. once daily for 15 days): lower weight gain
mean weight gain baseline to day 15 ([11]; 40 mg/kg s.c. once daily 15 days): 22 grams
